Data on one molecule can be found in patent US20230104487A1, “11-(4-CHLOROPHENYL)-4-(2,3-DIHYDRO-1H-INDOLE-1-CARBONYL)-3,11-DIMETHYL-5,10,DIOXATRICYCLO[7.4.0.0,2,6,]TRIDECA-1,3,6,8-TETRAEN-13-ONE AND DERIVATIVES AS DESTABILIZER OF CRY1 FOR THE TREATMENT OF CIRCADIAN RHYTHM ASSOCIATED DISEASES AND DISORDERS” (KOC UNIVERSITESI, priority 2019, published 2023).

This experiment has as its target T1, CRY2 (Mus musculus, UniProt Q9R194).
T1 construct: expressed in transfected cells; host or cells: HEK293T (lysate)
T1 sequence (Q9R194 1-592): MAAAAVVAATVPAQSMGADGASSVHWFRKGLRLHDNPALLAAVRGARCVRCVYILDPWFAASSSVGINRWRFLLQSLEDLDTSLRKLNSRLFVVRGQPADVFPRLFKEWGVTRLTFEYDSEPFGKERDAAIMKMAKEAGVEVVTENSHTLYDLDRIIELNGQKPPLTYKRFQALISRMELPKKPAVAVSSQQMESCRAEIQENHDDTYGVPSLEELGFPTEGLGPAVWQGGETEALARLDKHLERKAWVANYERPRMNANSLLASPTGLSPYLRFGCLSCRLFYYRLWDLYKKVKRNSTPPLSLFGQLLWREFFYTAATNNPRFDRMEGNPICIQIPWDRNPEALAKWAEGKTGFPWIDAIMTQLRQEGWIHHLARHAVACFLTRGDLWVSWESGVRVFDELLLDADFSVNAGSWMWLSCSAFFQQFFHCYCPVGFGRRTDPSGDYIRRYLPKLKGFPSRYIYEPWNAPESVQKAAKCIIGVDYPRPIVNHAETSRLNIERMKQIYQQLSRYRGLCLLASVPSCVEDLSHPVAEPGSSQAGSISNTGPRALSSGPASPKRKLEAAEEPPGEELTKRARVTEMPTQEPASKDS
The experiment can be described thus: Pull-down assay with biotinylated molecule, CRY2-HIS-MYC. The experiment is classed as binding. The settings on record: 50 μM bFORMULA I, 100 μM FORMULA I competitor. As for the experimental part:
10 μg of Cry1-pcDNA4, Cry2-pcDNA4 or Cry1-T5-pcDNA4 plasmids expressing His and Myc at the C-terminal of CRYs were transfected to HEK293T cell. After 48 h of transfection cells were harvested and lysed in lysis buffer (50 mM Tris pH 7.4, 2 mM EDTA, 1 mM MgCl2, 0.2% NP-40 (v/v), 0.1% sodium deoxycholate (w/v), 1 mM sodium orthovanadate, 1 mM sodium fluoride, and protease inhibitor cocktail (Thermo Scientific)). Lysates were incubated for 10 minutes on ice then mixed gently and incubated for another 10 minutes on ice. Then lysate was centrifuged for 10 minutes at 7000 g at 4° C. 5% of the supernatant was kept for input analysis. Remaining supernatant was divided to three and mixed with 2×binding buffer (100 mM Tris-HCl pH 7.4, 300 mM NaCl, 0.2% NP-40 (v/v), 2 mM sodium orthovanadate, 2 mM sodium fluoride, and protease inhibitor) with 1:1 ratio, incubated with rotation having either of these: a) DMSO, b) biotinylated molecule, c) biotinylated molecule and the competitor for 2 h. During this period NeutrAvidin Agarose resin (Thermo Scientific) was equilibrated with lysis buffer by mixing for 5 minutes via rotation at 4° C. three times. After each mix period, resins were centrifuged at 2500 g at 4° C. for 2 minutes and supernatant was discarded. […] Pulled-down samples were analyzed via western blot.

As for `Cc1c(C(=O)N2CCc3ccccc32)oc2ccc3c(c12)C(=O)CC(C)(c1ccc(Cl)cc1)O3` (stereo not shown) [FORMULA I, 11-(4-chlorophenyl)-4-(2,3-dihydro-1H-indole-1-carbonyl)-3,11-dimethyl-5,10,dioxatricyclo[7.4.0.0,2,6,]trideca-1,3,6,8-tetraen-13-one], the “physical binding to CRY2 (pull-down)” value is listed as “does not bind to CRY2”.
